What was measured:
Format in all cases: cell-based, rat
[1] = tested on: Neuregulin-β; test: 2-D-PAGE / MALDI-TOF-MS / ESI-MS of glutamate-induced changes in hippocampal proteins; settings: for Quantity of Neu-β (32 kDa spot) in 2-D-PAGE: FIG. 4: B=glutamate, C=glutamate+MK-801 (10 μM MK-801)
Excerpt: (§1) Hippocampal cells were stimulated with stimulation buffer (in mM): NaCl (125), KCL (5), CaCl2 (2-6), MgCl2 (0.8) glucose (5-10), HEPES (20), L-glutamate (0.01-0.1), glycine (0.01), bicucullin (0.01), pH 7.2; (A=control, B=glutamate, C=glutamate+MK-801; MK-801 is a specific glutamate receptor antagonist). In this connection, the measured or control quantity indicative of performance was a fluorescence signal measured using Fura-2, which signal is proportional to the calcium concentration (all the substances can be found in chemical catalogues supplied by Torris or Sigma).
Furthermore, proteins which change under the chosen experimental conditions, or otherwise behave in a conspicuous manner, are characterized and identified using the techniques of proteome research, namely by means of two-dimensional gel electrophoresis, MALDI-TOF-MS and ESI-MS.
Neuregulin-β was identified by means of two-dimensional PAGE using isoelectric focusing and employing immobilized, nonlinear pH gradients of from 3 to 10 and linear gradients of from 4 to 7 as the first dimension and SDS-PAGE (12% acrylamide) as the second dimension.
The protein was excised from the gels, subjected to a trypsin cleavage within the gel and subsequently [lacuna] mass-spectroscopically by means of MALDI-TOF mass fingerprint and ESI peptide sequencing (Corthals et al., Identification of Proteins by Mass-Spectrometry, in: Proteome Research, Two-Dimensional Gel-Electrophoresis and Identification Methods, Thierry Rabilloud, Ed., Springer, Berlin (2000), 197-232).
The identity of the protein was confirmed by analyzing selected peptides by means of MS/MS analysis using ion traps, electrospray, mass spectroscopy of the peptide mixture, which was not fractionated and which had previously been analyzed by MALDI-TOF. The MS/MS analysis of m/z 798.4 was sufficient in order, inter alia, to identify the 88-94 peptide of neuregulin-β. The MS/MS analysis of m/z=842.7 confirmed the sequence of the peptide around position 81-87. […]

[2] = tested on: hippocampal cells; test: Fura-2 fluorescence imaging of intracellular calcium after glutamate stimulation in flow cell; settings: hippocampal neurons
Excerpt: as §1, with “Sigma). […]” for “Sigma).”
The fluorescence signals in a larger number of cells are detected, in a time-resolved manner, in dependence on the stimulation conditions (temperature, active compound).
(§2) In the above-described set up, the following parameters were determined simultaneously or in an explicitly correlating manner. […] Accompanying this, are the simultaneous changes in the release of neurotransmitter (GABA), the influx of Mg into the cells, as detected using the stable isotopic tracer ^26Mg. […]

[3] = tested on: hippocampal cells; test: Intracellular 26Mg stable isotopic tracer by ICP-MS; settings: hippocampal neurons, 100 μm glutamate for 30 seconds, +22° C.; control 25 nM/mg of protein
Description: (§3) Suitable cell culture systems, in the case of neuregulin-β hippocampal primary cultures obtained from prenatal or neonatal rats (described in, for example, “Rat hippocampal neurons in low-density culture”, K. Goslin, H. Asmussen, G. Banker; in “Culturing Nerve Cells, 2nd edition 1998, pp. 339 ff; K. Goslin and G. Banker, eds. MIT Press, Cambridge, Mass., USA), are cultured on the above-described slides, introduced into the flow cell and initially characterized microscopically (morphological micrographs, etc. in the phase contrast microscope). […]
(§4) Almost in parallel to this, the perfusate is subjected to a synchronized fractionation and analysis; in the case of hippocampal neurons, of neurotransmitters, by means of HPLC using fluorescence detection, in the case of other low molecular weight extracellular components, by means of EMI-MS, and in the case of stable isotopic tracers and metal ions, by means of ICP-MS.
as §2

[4] = tested on: hippocampal cells; test: Neurotransmitter (GABA) release in perfusate by fluorescence HPLC; settings: hippocampal neurons, 100 μm glutamate for 30 seconds, +22° C.; control 87 pMol
Description: as §3, §4, §2

Row | SMILES | Quantity of Neu-β (32 kDa spot) in 2-D-PAGE [1] | Calcium (intracellular) concentration (prestimulated) ([2]; 100 μm glutamate for 30 seconds, +22° C., control 350 nM) [nM] | Calcium inflow (Fura-2) ([2]; qualitative) | 26Mg (intracellular) concentration (prestimulated) [3] | GABA measured quantity (prestimulated) [4] [pmol] | Neuregulin-β expression (prestimulated) ([1]; hippocampal neurons, glutamate stimulated, control not expressed)
1 | C[C@]12N[C@H](Cc3ccccc31)c1ccccc12 [MK-801] | only weakly present, or cannot be found at all | – | – | – | – | –
2 | N[C@@H](CCC(=O)O)C(=O)O [glutamate, L-glutamate] | substantially larger quantity | 850 | induces an inflow of calcium ions | 45 nM/mg of nM/mg of protein | 74 | Strongly

Source: patent US8546086B2, “Use of neuregulin-β as an indicator and/or target” (Mind-NRG SA, priority 2000, dated 2013)
